# Measurements as given in US11319347B2, “Peptide compound and method for producing same, composition for screening use, and method for selecting peptide compound” (FUJIFILM Corporation, priority 2017, dated 2022).
# Starred links: 1 amine or outer side, 2 acyl side, 3 side chain; linkers in the order of their positions; H or OH if unused. Positions of bridges follow the written chain, without caps; N, C: chain ends. Non-standard residues stand in square brackets, D forms with d. Residues, ends and D or L forms follow the SMILES beside them. ξ: configuration not given here. Phe(3-(4R-CO-2-thiazolinyl)) = O=C([C@H](Cc1cccc(C2=N[C@H](C(=O)[*:3])CS2)c1)N[*:1])[*:2]; Nle = CCCC[C@H](N)C(=O)O; ξL = CC(C)CC(N)C(=O)O
# Assay: Membrane permeability of synthesized cyclic peptides by PAMPA (Measurement Method A: 1 μmol/L; Method B: 10 μmol/L)
# Format: in vitro ADME
# Conditions: Measurement method A, 25° C., 4 hours
# Description: Evaluation of membrane permeability of synthesized cyclic peptide by PAMPA method In order to compare and examine the membrane permeability of the synthesized cyclic peptide, parallel artificial membrane permeability assay (PAMPA) was carried out.
# An artificial phospholipid membrane was produced by adding 5 μL of a phospholipid organic solvent solution consisting of L-α-phosphatidylcholine (Avanti Polar Lipids, Inc., Cat. 840051P, 1.67%), 1,2-dioleoyl-sn-glycero-3-phospho-L-serine (Avanti Polar Lipids, Inc., Cat. 840035P, 0.33%), and n-dodecane special grade (Wako Pure Chemical Industries, Ltd., 047-21612)/1-octanol reagent special grade (Kanto Chemical Co., Inc., Cat. 31013-08)=10:1 to Filter Plate (Merck Millipore Corporation, Cat. MAIPN4550).
# 475 μL of 50 mmol/L potassium phosphate buffer (KPB, pH 7.4 or pH 6.5) was added to 25 μL of a DMSO solution containing the compound at a concentration of 20 μmol/L, so that the compound was diluted to a final concentration of 1 μmol/L. 300 μL of the compound solution was added to the lower side (donor side) of PAMPA 96-well plate (Filter Plate (Merck Millipore Corporation, Cat. MAIPN4550)) with an artificial phospholipid membrane being interposed therebetween. 200 μL of 5% DMSO KPB (pH 7.4) was added to the upper side (acceptor side) with the artificial phospholipid membrane being interposed therebetween. A permeation test through an artificial phospholipid membrane was carried out at 25° C. for 4 hours. The compound concentration in the solution in the donor plate and the acceptor plate was measured by LC/MS/MS, and the membrane permeation rate (Pe) of the compound was calculated from the following formula, assuming that C0 is an initial compound concentration in donor solution, t is a test time, A is a membrane filter area=0.3 cm^2, VD is a donor solution amount=300 μL, VA is an acceptor solution amount=200 μL, and CD(t) is a compound concentration in donor solution at time t, CA(t) is a compound concentration in acceptor solution at time t, and Cequilibrium=[CD(t)*VD+CA(t)*VA]/(VD+VA).
# 475 μL of 50 mmol/L potassium phosphate buffer (KPB, pH 7.4 or pH 6.5) was added to 25 μL of a DMSO solution containing the compound at a concentration of […], so that the compound was diluted to a final concentration of 10 μmol/L. The compound solution was added 300 μL each to the lower side (donor side) of an artificial phospholipid membrane of PAMPA 96-well plate (Filter Plate (Merck Millipore Corporation, Cat. MAIPN4550)). 200 μL of 5% DMSO KPB (pH 7.4) was added to the upper side (acceptor side) with the artificial phospholipid membrane being interposed therebetween. A permeation test through an artificial phospholipid membrane was carried out at 25° C. for 4 hours. The compound concentration in the solution in the donor plate and the acceptor plate was measured by LC/MS/MS, and the membrane permeation rate (Pe) of the compound was calculated from the following formula, assuming that Co is an initial compound concentration in donor solution, t is a test time, A is a membrane filter area=0.3 cm^2, VD is a donor solution amount=300 μL, VA is an acceptor solution amount=200 μL, and CD(t) is a compound concentration in donor solution at time t, CA(t) is a compound concentration in acceptor solution at time t, and Cequilibrium=[CD(t)*VD+CA(t)*VA]/(VD+VA).
# The membrane permeability (Pe(10^−6 cm/s)) obtained by this method is described in the following table.
# Evaluation standards are as follows.
row,Compound,Pe(10^−6 cm/sec)
1,CC(C)C[C@@H]1NC(=O)[C@@H](C(C)C)NC(=O)[C@H](C)NC(=O)CC[C@@H](C(N)=O)NC(=O)[C@@H](CCC(=O)O)NC(=O)[C@@H](Cc2c[nH]c3ccccc23)NC1=O [8-3] (A[dV]L[dW][dE]E-NH2; lactam N-6),− (0.01≤Pe (10^−6 cm/s))
2,Cn1nc2c3cc(ccc31)C[C@@H](C(N)=O)NC(=O)[C@H](CCCNC(=N)N)NC(=O)[C@H](Cc1c[nH]c3ccccc13)NC(=O)[C@@H](CC1CCCCC1)NC(=O)[C@@H]1CCCN1C(=O)[C@@H]1CSC2=N1 [a-1-3],+++ (0.5<Pe (10^−6 cm/s))
3,CC(C)C[C@@H]1NC(=O)[C@@H]2CSC(=N2)c2cccc(c2)C[C@@H](C(=O)N[C@@H](C)C(=O)N[C@@H](CC(C)C)C(=O)N[C@@H](Cc2ccccc2)C(=O)N[C@@H](CC(C)C)C(=O)N[C@@H](C)C(N)=O)NC(=O)[C@@H]2CCCN2C(=O)[C@H](CCCCN)NC1=O [a-3-2] (LKP[Phe(3-(4R-CO-2-thiazolinyl))]ALFLA-NH2; lactam N-4),++ (0.2<Pe (10^−6 cm/s)≤0.5)
4,Cn1ccc2cc3c(nc21)C1=N[C@@H](CS1)C(=O)N1CCC[C@H]1C(=O)N[C@H](CC1CCCCC1)C(=O)N[C@@H](Cc1c[nH]c2ccccc12)C(=O)N[C@@H](CCCNC(=N)N)C(=O)N[C@H](C(N)=O)C3 [a-1-4],+++ (0.5<Pe (10^−6 cm/s))
5,N=C(N)NCCC[C@@H]1NC(=O)[C@H](Cc2c[nH]c3ccccc23)NC(=O)[C@@H](CC2CCCCC2)NC(=O)[C@@H]2CCCN2C(=O)[C@@H]2CSC(=N2)c2ccc(s2)C(=O)NCCOCCOCCOCCOc2ccc(cc2)C[C@@H](C(N)=O)NC1=O [a-1-9],+++ (0.5<Pe (10^−6 cm/s))
6,N=C(N)NCCC[C@@H]1NC(=O)[C@H](Cc2c[nH]c3ccccc23)NC(=O)[C@@H](CC2CCCCC2)NC(=O)[C@@H]2CCCN2C(=O)[C@@H]2CSC(=N2)c2sccc2C[C@@H](C(N)=O)NC1=O [2-17],+++ (0.5<Pe (10^−6 cm/s))
7,CC(C)C[C@@H]1NC(=O)[C@@H](C(C)C)NC(=O)[C@H](C)NC(=O)Cn2cc(nn2)C[C@@H](C(N)=O)NC(=O)[C@@H](CCC(=O)O)NC(=O)[C@@H](Cc2c[nH]c3ccccc23)NC1=O [10-3],− (0.01≤Pe (10^−6 cm/s))
8,C[C@@H]1NC(=O)CSC[C@@H](C(N)=O)NC(=O)[C@H]([C@@H](C)O)NC(=O)[C@H](CCCCN)NC(=O)[C@@H](Cc2c[nH]c3ccccc23)NC(=O)[C@H](Cc2ccccc2)NC1=O [7-3] ({CH2CO}-AF[dW]KTC-NH2; thioether N-6),− (0.01≤Pe (10^−6 cm/s))
9,N=C(N)NCCC[C@@H]1NC(=O)[C@H](Cc2c[nH]c3ccccc23)NC(=O)[C@@H](CC2CCCCC2)NC(=O)[C@@H]2CCCN2C(=O)[C@@H]2CSC(=N2)c2ccc(cn2)OCCOCCOCCOCCOc2ccc(cc2)C[C@@H](C(N)=O)NC1=O [a-1-8],+++ (0.5<Pe (10^−6 cm/s))
10,N=C(N)NCCC[C@@H]1NC(=O)[C@H](Cc2c[nH]c3ccccc23)NC(=O)[C@@H](CC2CCCCC2)NC(=O)[C@@H]2CCCN2C(=O)[C@@H]2CSC(=N2)c2cnc3cc(ccc3c2)C[C@@H](C(N)=O)NC1=O [2-4],+++ (0.5<Pe (10^−6 cm/s))
11,C[C@@H]1NC(=O)CC[C@@H](C(N)=O)NC(=O)[C@@H](Cc2ccccc2)NC(=O)CNC(=O)CNC(=O)[C@@H](Cc2ccc(O)cc2)NC1=O [8-2] (A[dY]GG[dF]E-NH2; lactam N-6),+ (0.01<Pe (10^−6 cm/s)≤0.2)
12,C[C@@H]1NC(=O)Cn2cc(nn2)C[C@@H](C(N)=O)NC(=O)[C@H](CCCNC(=N)N)NC(=O)[C@H](Cc2c[nH]c3ccccc23)NC(=O)[C@@H](CC2CCCCC2)NC(=O)[C@@H]2CCCN2C1=O [10-1],+ (0.01<Pe (10^−6 cm/s)≤0.2)
13,N=C(N)NCCC[C@@H]1NC(=O)[C@H](Cc2c[nH]c3ccccc23)NC(=O)[C@@H](CC2CCCCC2)NC(=O)[C@@H]2CCCN2C(=O)[C@@H]2CSC(=N2)C[C@@H](C(N)=O)NC1=O [3-5],++ (0.2<Pe (10^−6 cm/s)≤0.5)
14,C[C@@H](O)[C@@H]1NC(=O)[C@H](CCCCN)NC(=O)[C@@H](Cc2c[nH]c3ccccc23)NC(=O)[C@H](Cc2ccccc2)NC(=O)[C@@H]2CSC(=N2)c2cc(cs2)C[C@@H](C(N)=O)NC1=O [4-6],+ (0.01<Pe (10^−6 cm/s)≤0.2)
15,N=C(N)NCCC[C@@H]1NC(=O)[C@H](Cc2c[nH]c3ccccc23)NC(=O)[C@@H](CC2CCCCC2)NC(=O)[C@@H]2CCCN2C(=O)[C@@H]2CSC(=N2)c2ccc(cn2)C[C@@H](C(N)=O)NC1=O [3-1],+++ (0.5<Pe (10^−6 cm/s))
16,NC(=O)[C@@H]1Cc2csc(c2)C2=N[C@@H](CCS2)C(=O)N[C@H](Cc2ccc(O)cc2)C(=O)NCC(=O)NCC(=O)N[C@H](Cc2ccccc2)C(=O)N1 [4-2],+++ (0.5<Pe (10^−6 cm/s))
17,NC(=O)[C@@H]1Cc2csc(c2)C2=N[C@@H](CS2)C(=O)N[C@H](Cc2ccc(O)cc2)C(=O)NCC(=O)NCC(=O)N[C@H](Cc2ccccc2)C(=O)N1 [4-3],+++ (0.5<Pe (10^−6 cm/s))
18,N=C(N)NCCC[C@@H]1NC(=O)[C@H](Cc2c[nH]c3ccccc23)NC(=O)[C@@H](CC2CCCCC2)NC(=O)[C@@H]2CCCN2C(=O)[C@@H]2CSC(=N2)c2cn3c(cccc3n2)C[C@@H](C(N)=O)NC1=O [a-1-12],+++ (0.5<Pe (10^−6 cm/s))
19,N=C(N)NCCC[C@@H]1NC(=O)[C@H](Cc2c[nH]c3ccccc23)NC(=O)[C@@H](CC2CCCCC2)NC(=O)[C@@H]2CCCN2C(=O)[C@@H]2CSC(=N2)c2cc(on2)C[C@@H](C(N)=O)NC1=O [a-1-6],+++ (0.5<Pe (10^−6 cm/s))
20,CCCC[C@@H]1NC(=O)[C@H](CCCCN)NC(=O)[C@H](CC(C)C)NC(=O)[C@H](CC(C)C)NC(=O)[C@H](C)NC(=O)CSC[C@@H](C(N)=O)NC(=O)[C@H](Cc2ccccc2)NC(=O)[C@H](C)NC(=O)[C@H](C)NC(=O)[C@@H]2CCCN2C1=O [7-5] ({CH2CO}-ALLK[Nle]PAAFC-NH2; thioether N-10),Below the limit
21,CC(=O)N[C@H]1CSSC[C@@H](C(N)=O)NC(=O)[C@@H](CCC(=O)O)NC(=O)[C@@H](Cc2c[nH]c3ccccc23)NC(=O)[C@H](CC(C)C)NC(=O)[C@@H](C(C)C)NC1=O [9-2] (Ac-C[dV]L[dW][dE]C-NH2; disulfide 1-6),+ (0.01<Pe (10^−6 cm/s)≤0.2)

# Same assay, conditions: Measurement method B (10 μmol/L), 25° C., 4 hours
row,Compound,Pe(10^−6 cm/sec)
1,N=C(N)NCCC[C@@H]1NC(=O)[C@H](Cc2c[nH]c3ccccc23)NC(=O)[C@@H](CC2CCCCC2)NC(=O)[C@@H]2CCCN2C(=O)[C@@H]2CSC(=N2)c2cn3cc(ncc3n2)-c2cccc(c2)C[C@@H](C(N)=O)NC1=O [a-1-14],+++ (0.5<Pe (10^−6 cm/s))
2,CC(=O)N[C@H]1CCCCNC(=O)[C@@H]2CSC(=N2)c2cccc(c2)C[C@@H](C(N)=O)NC(=O)[C@H](C)NC(=O)C(CC(C)C)NC(=O)[C@H](CCCCN)NC(=O)[C@H](CC(C)C)NC(=O)[C@H](C)NC(=O)[C@H](CC(C)C)NC1=O (stereo partly drawn) [a-4-1] (Ac-KLALK[ξL]A[Phe(3-(4R-CO-2-thiazolinyl))]-NH2; lactam 1-8),+ (0.01<Pe (10^−6 cm/s)≤0.2)
3,CC(C)C[C@@H]1NC(=O)[C@@H]2CSC(=N2)c2cccc(c2)C[C@@H](C(N)=O)NC(=O)[C@H](CC(C)C)NC(=O)[C@H](C)NC(=O)[C@H](Cc2ccccc2)NC(=O)[C@H](C)NC(=O)[C@@H]2CCCN2C(=O)[C@H](C)NC(=O)[C@H](CC(C)C)NC(=O)[C@H](CC(C)C)NC(=O)[C@@H]2CCCN2C(=O)[C@H](CC(C)C)NC(=O)[C@H](CCCNC(=N)N)NC(=O)[C@H](CC(C)C)NC1=O [a-3-1] (LLRLPLLAPAFAL[Phe(3-(4R-CO-2-thiazolinyl))]-NH2; lactam N-14),+++ (0.5<Pe (10^−6 cm/s))
